Data set [1] in a line: IV JVC rat PK study at 3 mg/kg. Type of data set: in vivo. The following applies: male Sprague Dawley rats, 3 mg/kg IV. The protocol:
Compound 3 was intravenously dosed at 3 mg/kg into a group of 3 individually housed, normally fed male Sprague Dawley rats that had been fitted with jugular vein catheters (JVCs). Dosing was performed with 2 mL/kg dosing volumes with 5% DMSO 95% water used as a dosing vehicle. Serial blood samples (150 μL) were taken from each animal at each time point post dose (0.08 h, 0.25 h, 0.5 h, 1 h, 2 h, 4 h, 8 h, and 24 h) into heparinised Eppendorf tubes (containing 5 μL heparin) on ice containing an equal quantity of water. Two 100 μL aliquots were then placed in duplicate 96 well plates on dry ice. Samples were stored in the freezer at −20° C. until bioanalysis.
(§1) Samples were defrosted and acetonitrile (containing internal standard) was used to precipitate the proteins. All the samples were mixed, centrifuged and the supernatants analysed by LC-MS-MS according to the following procedures: • 1. 20 μL plasma was transferred to a v-bottom 96-well plate. • 2. 80 μL acetonitrile (ACN) containing IS was added to each well. • 3. The plate was sealed and gently mixed for approximately 30 s. • 4. Plates were centrifuged for 10 min at 3500 rpm. • 5. 50 μL supernatant was transferred to a fresh v-bottom 96-well plate containing 100 μL MilliQ water.
(§2) Plates were thermo-sealed and stored at 4° C. until analysis. The resulting PK parameters are shown below in Table 1.

Data set [2] is described as follows: PO JVC rat PK study at 10 mg/kg. The data set is classed as in vivo. The following applies: male Sprague Dawley rats. The procedure:
Compound 3 was orally dosed at 10 mg/kg to a group of 3 individually housed male Sprague Dawley rats that were fasted overnight and fed 4 h post-dose, the rats were fitted with JVCs. Dosing was performed with 5 mL/kg dosing volumes with 5% DMSO 95% water used as a dosing vehicle. Serial blood (150 μL) samples were taken from each animal at each timepoint (0.25 h, 0.5 h, 1 h, 2 h, 4 h, 6 h, 8 h, and 24 h) into heparinised Eppendorf tubes (containing 5 μL heparin) on ice containing an equal quantity of water. Two 100 μL aliquots were then placed in duplicate 96 well plates on dry ice. Samples were stored in the freezer at −20° C. until bioanalysis.
as §1, §2

Data set [3] is described as follows: PO JVC rat terminal PK study at 20 mg/kg (tissue distribution). The data set is classed as in vivo. The following applies: rat, 20 mg/kg PO; for Brain to Blood Ratio (corrected): corrected for 15 μL of blood per gram of brain tissue. The protocol:
Compound 3 was orally dosed at 20 mg/kg to a group of nine, jugular vein cannulated, individually housed male Sprague Dawley rats that were fasted overnight and fed 4 h post-dose to assess its tissue distribution profile. Dosing was performed with 5 mL/kg dosing volumes with 5% DMSO, 95% water used as a dosing vehicle. Terminal blood samples (>230 μL) were taken from groups of 3 animals at each of 3 time-points post dose (1 h, 2 h, and 4 h) by cardiac puncture under CO2 into heparinised Eppendorf tubes (containing 5 μL heparin) on ice containing an equal quantity of water. Two 100 μL aliquots were then placed in duplicate 96 well plates on dry ice. Immediately after blood sampling, brain and eye pair samples were excised, weighed, rinsed, blotted, and snap frozen in liquid N2. Samples were stored in the freezer at −20° C. until bioanalysis.
Tissue samples were weighed and a volume of water 3 times the mass added to samples before homogenization. In the case of eyeballs the lens could not be homogenized, but all other tissues homogenized. The resulting data (tissue distribution parameters) are shown below in Table 2.

A short description of data set [4]: In vitro brain homogenate stability, mouse. Type of data set: in vitro ADME. The procedure: Fresh rodents brains were snap frozen immediately after collection and the assay performed on the same day. Brains were pre-incubated at 37° C. before being spiked with test compound at 1 μM. Samples were collected across 6 time points (0, 10, 20, 30, 45 and 60 minutes) and crashed in cold acetonitrile containing an internal standard (Leucine Enkephalin) and kept on ice until all samples had been collected. The samples were then shaken and centrifuged. 100 μL of supernatant was transferred to a plate containing 50 μL of MilliQ water and mixed. These plates were analyzed by LC-MS/MS over the 6 time points, where the percentage of test compound remaining was calculated using the peak area of the initial timepoint (T=0 minutes) as 100%. The natural log of the percentage remaining was then calculated. The natural log of the percentage remaining versus time (minutes) was plotted on a graph and the gradient of this graph was used to calculate the elimination rate constant (K), The half-life (t1/2) of test compound was calculated using the natural log of 2 divided by the elimination rate constant. The percentage of Compound 2 formed is reported below in Tables 4-6. FIGS. 9A-9F show results of the brain homogenate stability conducted with representative compounds of the Examples.

A word on the Vdss: it is a proportionality between amount in the body and measured concentration, not a real space. The term Cmax denotes the maximum level reached in the sampled fluid or tissue. As a reminder, the Tmax is the time at which the peak concentration occurs. In data set [1], “2-(5Z,8Z,11Z,14Z)-icosa-5,8,11,14-tetraenamidoethyl (trimethylammonio) ethylphosphate [Compound 3]” displayed an AUC0-inf of 2561.0 ng·h/mL, an AUC0-t of 2462.2 ng·h/mL, a CI of 31 mL/min/kg and a Vdss of 6.3 L/kg. Besides, the t1/2 in data set [1] worked out at 7.4 h. In data set [2] (10 mg/kg PO), the AUC0-inf was found to be 2426.6 ng·h/mL, the AUC0-t came to 2348.5 ng·h/mL, the Cmax was determined as 372 ng/mL and the Tmax is 2.5 h. Also, the Bioavailability in data set [2] (10 mg/kg PO vs 3 mg/kg IV) amounted to 28 % F. Besides, in data set [3] (1 h), the “Brain to Blood Ratio (corrected)” value stood at 0.25. In data set [3] (1 h post dose), this substance yielded a Blood of 108.4 ng/mL, a Brain of 28.3 ng/g and an Eye of 1035.4 ng/g. Also, the “Brain to Blood Ratio (corrected)” value in data set [3] (2 h) is reported as 1.69. In data set [3] (2 h post dose), this substance had a Blood of 16.7 ng/mL, a Brain of 28.5 ng/g and an Eye of 105.0 ng/g. Also, in data set [3] (4 h), the “Brain to Blood Ratio (corrected)” value was 2.69. Further, in data set [3] (4 h post dose), the Blood is reported as 12.8 ng/mL, the Brain was 34.6 ng/g and the Eye turned out to be 104.4 ng/g. Further, in data set [4] (37° C., test compound at 1 μM), the “Mouse t1/2” value was 1.67 h. Also, the “Clearance in brain homogenate stability study (in words)” value in data set [4] (one hour incubation, increasing formation of Compound 2) is given as “demonstrated a level of clearance”.

These data come from patent US20220112225A1, “ANANDAMIDE COMPOUNDS” (priority 2019, published 2022).
